# Results from PubChem BioAssay (NCI).
#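 Values below derive from 48-hour exposures of cells grown in 96-well plates, with endpoints linearly interpolated between the two concentrations bracketing the appropriate inhibition level. GI50 is the concentration that inhibits growth by half. TGI marks complete inhibition of growth.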
# What was measured:
# Assay in all cases: growth of human tumour cells (NCI), 48 h
# ACHN renal = test system: ACHN renal
# A498 renal = test system: A498 renal
# EKVX NSCLC = test system: EKVX NSCLC
# KM12 colon = test system: KM12 colon
# A549 NSCLC = test system: A549 NSCLC
# RPMI-8226 leukemia = test system: RPMI-8226 leukemia
# HOP-62 NSCLC = test system: HOP-62 NSCLC
# SF-539 CNS = test system: SF-539 CNS
# HL-60(TB) leukemia = test system: HL-60(TB) leukemia
# LOX IMVI melanoma = test system: LOX IMVI melanoma
# NCI/ADR-RES ovarian = test system: NCI/ADR-RES ovarian
# UACC-257 melanoma = test system: UACC-257 melanoma
# HCC-2998 colon = test system: HCC-2998 colon
# NCI-H23 lung = test system: NCI-H23 lung
# MCF7 breast = test system: MCF7 breast
# DU-145 prostate = test system: DU-145 prostate
# U251 CNS = test system: U251 CNS
# CAKI-1 renal = test system: CAKI-1 renal
# HCT-15 colon = test system: HCT-15 colon
# SF-295 CNS = test system: SF-295 CNS
# CCRF-CEM leukemia = test system: CCRF-CEM leukemia
# MOLT-4 leukemia = test system: MOLT-4 leukemia
# HCT-116 colon = test system: HCT-116 colon
# HOP-92 NSCLC = test system: HOP-92 NSCLC
# SR leukemia = test system: SR leukemia
# K-562 leukemia = test system: K-562 leukemia
# IGROV1 ovarian = test system: IGROV1 ovarian
# UACC-62 melanoma = test system: UACC-62 melanoma
# 786-0 renal = test system: 786-0 renal
# T-47D breast = test system: T-47D breast
# SNB-75 CNS = test system: SNB-75 CNS
# MALME-3M melanoma = test system: MALME-3M melanoma
# RXF 393 renal = test system: RXF 393 renal
# TK-10 renal = test system: TK-10 renal
# HS 578T breast = test system: HS 578T breast
# SN12C renal = test system: SN12C renal
# M14 melanoma = test system: M14 melanoma
# HT29 colon = test system: HT29 colon
# NCI-H522 lung = test system: NCI-H522 lung
# OVCAR-8 ovarian = test system: OVCAR-8 ovarian
# PC-3 prostate = test system: PC-3 prostate
# NCI-H460 lung = test system: NCI-H460 lung
# SF-268 CNS = test system: SF-268 CNS
# OVCAR-3 ovarian = test system: OVCAR-3 ovarian
# SK-MEL-28 melanoma = test system: SK-MEL-28 melanoma
# UO-31 renal = test system: UO-31 renal
# OVCAR-4 ovarian = test system: OVCAR-4 ovarian
# SW-620 colon = test system: SW-620 colon
# MDA-MB-435 = test system: MDA-MB-435
# BT-549 breast = test system: BT-549 breast
# OVCAR-5 ovarian = test system: OVCAR-5 ovarian
# SK-MEL-2 melanoma = test system: SK-MEL-2 melanoma
# SNB-19 CNS = test system: SNB-19 CNS
# MDA-MB-231 breast = test system: MDA-MB-231 breast
smiles,measurement,setting,value
c1ccc([P+](c2ccccc2)(c2ccccc2)c2ccc3c4ccc([P+](c5ccccc5)(c5ccccc5)c5ccccc5)c5cccc(c6cccc2c63)c54)cc1,GI50,ACHN renal,3.79 µM
same,TGI,ACHN renal,> 100 µM
same,GI50,A498 renal,0.889 µM
same,TGI,A498 renal,6.79 µM
same,GI50,EKVX NSCLC,1.69 µM
same,TGI,EKVX NSCLC,35.2 µM
same,GI50,KM12 colon,0.743 µM
same,TGI,KM12 colon,3.1 µM
same,GI50,A549 NSCLC,0.986 µM
same,TGI,A549 NSCLC,> 100 µM
same,GI50,RPMI-8226 leukemia,0.647 µM
same,TGI,RPMI-8226 leukemia,4.16 µM
same,GI50,HOP-62 NSCLC,0.931 µM
same,TGI,HOP-62 NSCLC,25.8 µM
same,GI50,SF-539 CNS,0.477 µM
same,TGI,SF-539 CNS,2.32 µM
same,GI50,HL-60(TB) leukemia,2.38 µM
same,TGI,HL-60(TB) leukemia,6.25 µM
same,GI50,LOX IMVI melanoma,2.67 µM
same,TGI,LOX IMVI melanoma,20.7 µM
same,GI50,NCI/ADR-RES ovarian,9.41 µM
same,TGI,NCI/ADR-RES ovarian,> 100 µM
same,GI50,UACC-257 melanoma,2.12 µM
same,TGI,UACC-257 melanoma,8.47 µM
same,GI50,HCC-2998 colon,2.28 µM
same,TGI,HCC-2998 colon,8.51 µM
same,GI50,NCI-H23 lung,2.1 µM
same,TGI,NCI-H23 lung,13.5 µM
same,GI50,MCF7 breast,1.25 µM
same,TGI,MCF7 breast,14.2 µM
same,GI50,DU-145 prostate,0.811 µM
same,TGI,DU-145 prostate,13.4 µM
same,GI50,U251 CNS,0.445 µM
same,TGI,U251 CNS,17.9 µM
same,GI50,CAKI-1 renal,6.15 µM
same,TGI,CAKI-1 renal,> 100 µM
same,GI50,HCT-15 colon,5.89 µM
same,TGI,HCT-15 colon,> 100 µM
same,GI50,SF-295 CNS,1.24 µM
same,TGI,SF-295 CNS,5.36 µM
same,GI50,CCRF-CEM leukemia,2.13 µM
same,TGI,CCRF-CEM leukemia,33.3 µM
same,GI50,MOLT-4 leukemia,2.37 µM
same,TGI,MOLT-4 leukemia,19.3 µM
same,GI50,HCT-116 colon,1.54 µM
same,TGI,HCT-116 colon,10.4 µM
same,GI50,HOP-92 NSCLC,1.18 µM
same,TGI,HOP-92 NSCLC,5.44 µM
same,GI50,SR leukemia,1.1 µM
same,TGI,SR leukemia,> 100 µM
same,GI50,K-562 leukemia,0.506 µM
same,TGI,K-562 leukemia,> 100 µM
same,GI50,IGROV1 ovarian,1.41 µM
same,TGI,IGROV1 ovarian,7.47 µM
same,GI50,UACC-62 melanoma,1.47 µM
same,TGI,UACC-62 melanoma,4.64 µM
same,GI50,786-0 renal,3.04 µM
same,TGI,786-0 renal,28.8 µM
same,GI50,T-47D breast,0.621 µM
same,TGI,T-47D breast,24.6 µM
same,GI50,SNB-75 CNS,0.435 µM
same,TGI,SNB-75 CNS,4.17 µM
same,GI50,MALME-3M melanoma,0.412 µM
same,TGI,MALME-3M melanoma,2.56 µM
same,GI50,RXF 393 renal,2.79 µM
same,TGI,RXF 393 renal,25.3 µM
same,GI50,TK-10 renal,4.18 µM
same,TGI,TK-10 renal,> 100 µM
same,GI50,HS 578T breast,0.574 µM
same,TGI,HS 578T breast,5.49 µM
same,GI50,SN12C renal,1.09 µM
same,TGI,SN12C renal,13.7 µM
same,GI50,M14 melanoma,1.39 µM
same,TGI,M14 melanoma,7.48 µM
same,GI50,HT29 colon,1.64 µM
same,TGI,HT29 colon,13.3 µM
same,GI50,NCI-H522 lung,1.24 µM
same,TGI,NCI-H522 lung,13.7 µM
same,GI50,OVCAR-8 ovarian,1.32 µM
same,TGI,OVCAR-8 ovarian,> 100 µM
same,GI50,PC-3 prostate,1.65 µM
same,TGI,PC-3 prostate,14.3 µM
same,GI50,NCI-H460 lung,0.692 µM
same,TGI,NCI-H460 lung,3.94 µM
same,GI50,SF-268 CNS,0.995 µM
same,TGI,SF-268 CNS,20 µM
same,GI50,OVCAR-3 ovarian,1.91 µM
same,TGI,OVCAR-3 ovarian,11.9 µM
same,GI50,SK-MEL-28 melanoma,1.67 µM
same,TGI,SK-MEL-28 melanoma,6.15 µM
same,GI50,UO-31 renal,2.73 µM
same,TGI,UO-31 renal,78.3 µM
same,GI50,OVCAR-4 ovarian,1.89 µM
same,TGI,OVCAR-4 ovarian,30.8 µM
same,GI50,SW-620 colon,1.98 µM
same,TGI,SW-620 colon,10.8 µM
same,GI50,MDA-MB-435,0.799 µM
same,TGI,MDA-MB-435,4.21 µM
same,GI50,BT-549 breast,0.455 µM
same,TGI,BT-549 breast,2.69 µM
same,GI50,OVCAR-5 ovarian,2.82 µM
same,TGI,OVCAR-5 ovarian,> 100 µM
same,GI50,SK-MEL-2 melanoma,2.57 µM
same,TGI,SK-MEL-2 melanoma,7.58 µM
same,GI50,SNB-19 CNS,0.714 µM
same,TGI,SNB-19 CNS,13.1 µM
same,GI50,MDA-MB-231 breast,2.22 µM
same,TGI,MDA-MB-231 breast,9.98 µM
